According to patent US20260184697A1, “EZH1/2 INHIBITOR, PREPARATION THEREOF, AND USE THEREOF IN ANTI-TUMOR THERAPY” (JIANGSU TASLY DIYI PHARMACEUTICAL CO., LTD., priority 2022, published 2026):

What follows are compounds tested on Karpas-422 cells (assay: Anti-proliferation by Cell Titer-Glo method (Test Example 3)). Details: Homo sapiens; Karpas-422 cells, Cell-Titer Glo on the eleventh day; read-out: Test Example 3 Karpas-422 cell anti-proliferation IC50.
Format: cell-based
Procedure: Karpas-422 (Nanjing Kebai, CBP60629) cells were seeded in a 96-well plate (Corning, 3894) at 1,000 cells per well in growth medium (80% 1640 (Hyclone, SH30809.01)+20% FBS (Corning, 35-081-CV)), in a total of 100 μL, and then was added with 25 μL of 5-fold different concentrations of compounds diluted in growth medium. The cell growth group without compound addition was used as a positive control (maximum signal control), and the medium was used as a negative control (minimum signal control), while ensuring that the final contration of DMSO in each reaction well was 0.2%. Then the 96-well cell plate was placed in a cell culture incubator (37° C., 5% CO2) and incubated for 3 days. On the fourth day, the cell culture plate was taken out of the incubator, using a row gun to gently blow the cells up and down to mix, removing 62.5 μL of the cell suspension, adding 50 μL of growth medium and 12.5 μL of compounds of 5 times different concentrations, and then putting them in the cell incubator to incubate for 4 days. On the eighth day, the same method was used as the fourth day to treat the cells, then incubating in the cell culture incubator for 3 days. On the eleventh day, the Cell-Titer Glo (Promega, G7573) was used to detect cell viability, and a microplate reader was used to detect the signal value of luminescence.
The inhibition rate of different concentrations of compounds on cells was calculated as inhibition rate=[1−(compound signal value−negative control signal value)/(positive control signal value-negative control signal value)][…]. The IC50 of the compound on cell activity inhibition was calculated by GraphPad Prism 6 with log(inhibitor) vs. response-Variable slope model fitting. The fitting equation is: Y=Bottom+(Top−Bottom)/(1+10^((Log IC50−X)*Hill Slope)), wherein Y represents the inhibition rate, and X represents the known concentration of the compound after Log.

Row | Compound | IC50 [nM]
1 | Cc1cc(C)c(CNC(=O)c2cc(Cl)c3c(c2C)O[C@H]([C@H]2CC[C@@H](N(C)C)CC2)CO3)c(=O)[nH]1 [Compound 54] | > 1000
2 | Cc1cc(C)c(CNC(=O)c2cc(Cl)c3c(c2C)OC[C@@H]([C@H]2CC[C@@H](N(C)C)CC2)O3)c(=O)[nH]1 [Compound 55] | 47.3
3 | Cc1cc(C)c(CNC(=O)c2cc(Cl)c3c(c2C)OC[C@H]([C@H]2CC[C@@H](N(C)C)CC2)O3)c(=O)[nH]1 [Compound 56] | > 1000
4 | Cc1cc(C)c(CNC(=O)c2cc(Cl)c3c(c2C)OC(C2CCC(N4CCCC4)CC2)CO3)c(=O)[nH]1 (stereo not shown) [Compound 63] | 341
5 | COc1cc(C)[nH]c(=O)c1CNC(=O)c1cc(Cl)c2c(c1C)O[C@@H]([C@H]1CC[C@@H](N3CC(OC)C3)CC1)CO2 [Compound 97] | 5.3

These reach a lower IC50. Values come first.

Row | IC50 [nM] | Compound
6 | 5.1 | COc1cc(C)[nH]c(=O)c1CNC(=O)c1cc(Cl)c2c(c1C)O[C@@H]([C@H]1CC[C@@H](N(C)C)CC1)CO2 [Compound 94]
7 | 3.8 | COCCOC1CN([C@H]2CC[C@@H]([C@H]3COc4c(Cl)cc(C(=O)NCc5c(OC)cc(C)[nH]c5=O)c(C)c4O3)CC2)C1 [Compound 101]

The compounds below were run against T1, EZH1/SUZ/EED (Homo sapiens, UniProt O75530+Q15022+Q92800) (assay: Inhibitory effect on EZH1 by the MTase-Glo method (Test Example 1)). Details: EZH1/SUZ/EED 25 nM, H3 peptide 10 μM, SAM 3 μM, 30° C. 3 h, read-out: Test Example 1 WT EZH1 IC50.
T1 construct: purchased BPS 51006
T1 sequence (Q92800 2-747 limits assumed): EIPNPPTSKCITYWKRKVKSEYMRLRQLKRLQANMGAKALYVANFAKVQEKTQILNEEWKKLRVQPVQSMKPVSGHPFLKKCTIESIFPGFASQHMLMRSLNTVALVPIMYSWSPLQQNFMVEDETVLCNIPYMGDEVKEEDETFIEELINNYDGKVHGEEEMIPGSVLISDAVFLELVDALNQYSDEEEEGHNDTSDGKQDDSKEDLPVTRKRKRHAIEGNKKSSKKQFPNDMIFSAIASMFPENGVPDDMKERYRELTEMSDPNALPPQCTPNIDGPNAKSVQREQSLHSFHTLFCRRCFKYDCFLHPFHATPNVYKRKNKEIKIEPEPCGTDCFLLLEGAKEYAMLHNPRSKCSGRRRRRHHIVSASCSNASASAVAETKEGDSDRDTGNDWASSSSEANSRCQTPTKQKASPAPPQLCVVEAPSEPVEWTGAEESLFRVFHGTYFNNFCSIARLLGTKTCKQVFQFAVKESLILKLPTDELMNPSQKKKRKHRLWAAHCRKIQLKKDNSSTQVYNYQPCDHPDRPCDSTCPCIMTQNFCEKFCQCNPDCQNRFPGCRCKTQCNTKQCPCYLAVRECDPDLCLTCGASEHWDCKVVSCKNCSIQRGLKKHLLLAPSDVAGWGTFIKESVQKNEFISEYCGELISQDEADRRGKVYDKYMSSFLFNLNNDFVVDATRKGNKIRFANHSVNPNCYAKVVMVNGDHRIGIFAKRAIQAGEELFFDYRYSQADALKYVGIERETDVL
T1 sequence (Q15022 2-739 partner limits assumed): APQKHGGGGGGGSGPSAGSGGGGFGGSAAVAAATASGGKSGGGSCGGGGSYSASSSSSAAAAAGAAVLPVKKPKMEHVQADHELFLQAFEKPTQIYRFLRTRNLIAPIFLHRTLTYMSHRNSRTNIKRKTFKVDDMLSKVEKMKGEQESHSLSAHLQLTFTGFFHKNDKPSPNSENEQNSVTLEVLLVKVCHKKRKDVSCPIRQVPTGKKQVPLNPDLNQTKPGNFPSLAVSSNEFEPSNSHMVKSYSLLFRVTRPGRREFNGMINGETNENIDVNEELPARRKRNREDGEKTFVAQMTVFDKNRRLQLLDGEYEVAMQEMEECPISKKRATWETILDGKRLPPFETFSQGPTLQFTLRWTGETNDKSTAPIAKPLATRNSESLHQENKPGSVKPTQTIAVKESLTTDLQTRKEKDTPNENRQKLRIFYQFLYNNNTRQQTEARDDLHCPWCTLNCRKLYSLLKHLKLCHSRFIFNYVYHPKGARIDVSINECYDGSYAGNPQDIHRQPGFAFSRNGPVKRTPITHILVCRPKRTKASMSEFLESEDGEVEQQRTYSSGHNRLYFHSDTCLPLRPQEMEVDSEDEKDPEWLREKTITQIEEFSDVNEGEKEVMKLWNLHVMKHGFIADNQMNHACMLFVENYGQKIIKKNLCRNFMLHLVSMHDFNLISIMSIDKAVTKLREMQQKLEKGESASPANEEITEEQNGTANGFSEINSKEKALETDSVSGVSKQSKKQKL
T1 sequence (O75530 2-441 partner limits assumed): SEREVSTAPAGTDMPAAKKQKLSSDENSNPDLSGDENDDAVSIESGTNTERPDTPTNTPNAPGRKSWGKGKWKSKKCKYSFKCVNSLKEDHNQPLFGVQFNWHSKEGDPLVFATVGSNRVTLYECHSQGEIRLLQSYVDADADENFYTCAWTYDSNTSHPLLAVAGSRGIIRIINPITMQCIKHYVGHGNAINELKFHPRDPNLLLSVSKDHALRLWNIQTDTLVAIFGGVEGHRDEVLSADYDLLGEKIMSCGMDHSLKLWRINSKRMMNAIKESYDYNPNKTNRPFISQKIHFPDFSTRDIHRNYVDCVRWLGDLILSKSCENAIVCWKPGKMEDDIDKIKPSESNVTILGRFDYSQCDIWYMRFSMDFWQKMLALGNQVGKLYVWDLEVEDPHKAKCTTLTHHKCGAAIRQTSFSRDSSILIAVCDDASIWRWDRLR
Format: biochemical
Outline: (§1)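 EZH2/SUZ/EED (6.25 nM) or EZH1/SUZ/EED (25 nM) pre-incubated 15 min with compound in pH 7.6 Bicine buffer, 0.5% DMSO. Biotinylated H3(21-44) peptide 10 μM plus SAM 3 μM reacted 3 h at 30 °C; MTase-Glo luminescence normalized to controls, IC50 from variable-slope fit.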

Row | Compound | IC50 [nM]
8 | Cc1cc(C)c(CNC(=O)c2cc(Cl)c3c(c2C)O[C@H]([C@H]2CC[C@@H](N(C)C)CC2)CO3)c(=O)[nH]1 [Compound 54] | 400
9 | Cc1cc(C)c(CNC(=O)c2cc(Cl)c3c(c2C)OC[C@@H]([C@H]2CC[C@@H](N(C)C)CC2)O3)c(=O)[nH]1 [Compound 55] | 150
10 | Cc1cc(C)c(CNC(=O)c2cc(Cl)c3c(c2C)OC[C@H]([C@H]2CC[C@@H](N(C)C)CC2)O3)c(=O)[nH]1 [Compound 56] | 810
11 | Cc1cc(C)c(CNC(=O)c2cc(Cl)c3c(c2C)OC(C2CCC(N4CCCC4)CC2)CO3)c(=O)[nH]1 (stereo not shown) [Compound 63] | 375
12 | COc1cc(C)[nH]c(=O)c1CNC(=O)c1cc(Cl)c2c(c1C)O[C@@H]([C@H]1CC[C@@H](N3CC(OC)C3)CC1)CO2 [Compound 97] | 15.2

More lines, now with the values ahead:

Row | IC50 [nM] | Compound
13 | 8.1 | COc1cc(C)[nH]c(=O)c1CNC(=O)c1cc(Cl)c2c(c1C)O[C@@H]([C@H]1CC[C@@H](N(C)C)CC1)CO2 [Compound 94]
14 | 5.5 | COCCOC1CN([C@H]2CC[C@@H]([C@H]3COc4c(Cl)cc(C(=O)NCc5c(OC)cc(C)[nH]c5=O)c(C)c4O3)CC2)C1 [Compound 101]

The compounds below were run against T2, EZH2/SUZ/EED (Homo sapiens, UniProt O75530+Q15022+Q15910) (assay: Inhibitory effect on EZH2 by the MTase-Glo method (Test Example 1)). Details: EZH2/SUZ/EED 6.25 nM, H3 peptide 10 μM, SAM 3 μM, 30° C. 3 h, read-out: Test Example 1 WT EZH2 IC50.
T2 construct: purchased BPS 51003
T2 sequence (Q15910 2-746 limits assumed): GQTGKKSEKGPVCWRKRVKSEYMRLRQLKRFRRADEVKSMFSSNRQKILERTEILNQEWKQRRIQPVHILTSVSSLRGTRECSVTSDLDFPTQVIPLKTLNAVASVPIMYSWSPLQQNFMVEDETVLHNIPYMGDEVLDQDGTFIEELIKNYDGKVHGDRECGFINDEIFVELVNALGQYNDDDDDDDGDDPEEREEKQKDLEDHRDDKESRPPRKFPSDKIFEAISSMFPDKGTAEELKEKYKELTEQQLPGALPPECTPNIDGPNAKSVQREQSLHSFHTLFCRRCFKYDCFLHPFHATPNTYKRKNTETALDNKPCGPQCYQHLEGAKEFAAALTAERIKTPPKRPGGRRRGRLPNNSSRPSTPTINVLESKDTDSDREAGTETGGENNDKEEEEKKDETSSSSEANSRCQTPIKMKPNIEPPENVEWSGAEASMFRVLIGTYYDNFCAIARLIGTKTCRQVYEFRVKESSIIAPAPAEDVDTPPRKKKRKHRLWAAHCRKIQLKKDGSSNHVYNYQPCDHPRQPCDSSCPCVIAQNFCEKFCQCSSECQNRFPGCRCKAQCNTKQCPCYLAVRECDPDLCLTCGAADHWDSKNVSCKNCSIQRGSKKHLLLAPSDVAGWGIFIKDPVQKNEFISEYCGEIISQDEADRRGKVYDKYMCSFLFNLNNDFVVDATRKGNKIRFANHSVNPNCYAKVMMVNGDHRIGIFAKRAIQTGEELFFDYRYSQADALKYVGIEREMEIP
T2 sequence (Q15022 2-739 partner limits assumed): as the sequence (Q15022 2-739 partner limits assumed) above
T2 sequence (O75530 2-441 partner limits assumed): as the sequence (O75530 2-441 partner limits assumed) above
Format: biochemical
Outline: as §1

Row | Compound | IC50 [nM]
15 | Cc1cc(C)c(CNC(=O)c2cc(Cl)c3c(c2C)O[C@H]([C@H]2CC[C@@H](N(C)C)CC2)CO3)c(=O)[nH]1 [Compound 54] | 250
16 | Cc1cc(C)c(CNC(=O)c2cc(Cl)c3c(c2C)OC[C@@H]([C@H]2CC[C@@H](N(C)C)CC2)O3)c(=O)[nH]1 [Compound 55] | 4.5
17 | Cc1cc(C)c(CNC(=O)c2cc(Cl)c3c(c2C)OC[C@H]([C@H]2CC[C@@H](N(C)C)CC2)O3)c(=O)[nH]1 [Compound 56] | 340
18 | Cc1cc(C)c(CNC(=O)c2cc(Cl)c3c(c2C)OC(C2CCC(N4CCCC4)CC2)CO3)c(=O)[nH]1 (stereo not shown) [Compound 63] | 11.5
19 | COc1cc(C)[nH]c(=O)c1CNC(=O)c1cc(Cl)c2c(c1C)O[C@@H]([C@H]1CC[C@@H](N3CC(OC)C3)CC1)CO2 [Compound 97] | 3.25

Results, then the compound that gave them:

Row | IC50 [nM] | Compound
20 | 3 | COc1cc(C)[nH]c(=O)c1CNC(=O)c1cc(Cl)c2c(c1C)O[C@@H]([C@H]1CC[C@@H](N(C)C)CC1)CO2 [Compound 94]
21 | 3.1 | COCCOC1CN([C@H]2CC[C@@H]([C@H]3COc4c(Cl)cc(C(=O)NCc5c(OC)cc(C)[nH]c5=O)c(C)c4O3)CC2)C1 [Compound 101]

These compounds were tested on H3K27Me3 methylation in Karpas-422 cells (assay: H3K27Me3 cell method, inhibition of H3K27Me3 methylation (Test Example 2)). Details: Homo sapiens, KARPAS-422, 72 h, Karpas-422 cells, 3 days incubation, HTRF signal; read-out: Test Example 2 H3K27Me3 inhibition (Karpas-422) IC50.
Format: cell-based, human
Outline: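 Karpas-422 cells, 15,000/well in 80% RPMI 1640 + 20% FBS, treated with compound dilutions (final DMSO 0.2%) for 3 days at 37 °C, 5% CO2. Cellular H3K27Me3 read by HTRF; viability in parallel by CCK8 at OD405. IC50 from log(inhibitor)-response variable-slope fit of inhibition rate.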

Row | Compound | IC50 [nM]
22 | Cc1cc(C)c(CNC(=O)c2cc(Cl)c3c(c2C)O[C@H]([C@H]2CC[C@@H](N(C)C)CC2)CO3)c(=O)[nH]1 [Compound 54] | > 1000
23 | Cc1cc(C)c(CNC(=O)c2cc(Cl)c3c(c2C)OC[C@@H]([C@H]2CC[C@@H](N(C)C)CC2)O3)c(=O)[nH]1 [Compound 55] | 19.4
24 | Cc1cc(C)c(CNC(=O)c2cc(Cl)c3c(c2C)OC[C@H]([C@H]2CC[C@@H](N(C)C)CC2)O3)c(=O)[nH]1 [Compound 56] | 944
25 | Cc1cc(C)c(CNC(=O)c2cc(Cl)c3c(c2C)OC(C2CCC(N4CCCC4)CC2)CO3)c(=O)[nH]1 (stereo not shown) [Compound 63] | 616
26 | COc1cc(C)[nH]c(=O)c1CNC(=O)c1cc(Cl)c2c(c1C)O[C@@H]([C@H]1CC[C@@H](N3CC(OC)C3)CC1)CO2 [Compound 97] | 8.2

The next lines start with the values.

Row | IC50 [nM] | Compound
27 | 2.8 | COc1cc(C)[nH]c(=O)c1CNC(=O)c1cc(Cl)c2c(c1C)O[C@@H]([C@H]1CC[C@@H](N(C)C)CC1)CO2 [Compound 94]
28 | 2.2 | COCCOC1CN([C@H]2CC[C@@H]([C@H]3COc4c(Cl)cc(C(=O)NCc5c(OC)cc(C)[nH]c5=O)c(C)c4O3)CC2)C1 [Compound 101]
